From ChEMBL document CHEMBL1201862, “PubChem BioAssay data set” (2004)
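Exposure lasted 48 hours, with cells grown in 96-well plates and compounds tested at five concentrations. At the GI50, growth is halved.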 Active and inactive are the calls of the source. Cut-off read from the data, not from the text of the source: active = GI50 up to about 1.1 µM and inactive = higher.

Columns and labels:
Assay in all cases: DTP human tumour cell line panel, 48 h
PC-3 = tested on: PC-3
NCI-H23 = tested on: NCI-H23
NCI-H226 = tested on: NCI-H226
SK-MEL-2 = tested on: SK-MEL-2
IGROV-1 = tested on: IGROV-1
DU-145 = tested on: DU-145
SW-620 = tested on: SW-620
OVCAR-8 = tested on: OVCAR-8
Malme-3M = tested on: Malme-3M
NCI/ADR-RES = tested on: NCI/ADR-RES
BT-549 = tested on: BT-549
Hs-578T = tested on: Hs-578T
A549 = tested on: A549
A498 = tested on: A498
SF-539 = tested on: SF-539
DMS-273 = tested on: DMS-273
DMS-114 = tested on: DMS-114
M19-MEL = tested on: M19-MEL
HOP-18 = tested on: HOP-18
SR = tested on: SR

| Compound | GI50 (PC-3) | GI50 (NCI-H23) | GI50 (NCI-H226) | GI50 (SK-MEL-2) | GI50 (IGROV-1) | GI50 (DU-145) | GI50 (SW-620) | GI50 (OVCAR-8) | GI50 (Malme-3M) | GI50 (NCI/ADR-RES) | GI50 (BT-549) | GI50 (Hs-578T) | GI50 (A549) | GI50 (A498) | GI50 (SF-539) | GI50 (DMS-273) | GI50 (DMS-114) | GI50 (M19-MEL) | GI50 (HOP-18) | GI50 (SR) |
| --- | --- | --- | --- | --- | --- | --- | --- | --- | --- | --- | --- | --- | --- | --- | --- | --- | --- | --- | --- | --- |
| CC(=N/NC(=S)N1CCCCCC1)/C(C)=N\NC(=S)N1CCCCCC1 | 5.86 µM (inactive) | 4.83 µM (inactive) | 3.42 µM (inactive) | 1.97 µM (inactive) | 3.84 µM (inactive) | 3.21 µM (inactive) | 2.37 µM (inactive) | 15.7 µM (inactive) | 5.5 µM (inactive) | 5.25 µM (inactive) | 5.27 µM (inactive) | 3.87 µM (inactive) | 5.3 µM (inactive) | 1.78 µM (inactive) | 20.7 µM (inactive) | – | – | – | – | – |
| CCN(CC)C(=O)C(C)n1cc(C)c(=O)[nH]c1=O (stereo unspecified) | – | > 100 µM (inactive) | – | > 100 µM (inactive) | > 100 µM (inactive) | – | > 100 µM (inactive) | > 100 µM (inactive) | > 100 µM (inactive) | – | – | – | > 100 µM (inactive) | – | > 100 µM (inactive) | > 100 µM (inactive) | > 100 µM (inactive) | > 100 µM (inactive) | – | – |
| CCOC(=O)C1C(c2cc(OC)c(O)c(OC)c2)c2cc3c(cc2OC1(C)O)OCO3 (stereo unspecified) | – | 66.5 µM (inactive) | – | > 100 µM (inactive) | > 100 µM (inactive) | – | 42.9 µM (inactive) | > 100 µM (inactive) | > 100 µM (inactive) | – | – | – | 45.6 µM (inactive) | – | > 100 µM (inactive) | 36.9 µM (inactive) | – | 66.4 µM (inactive) | > 100 µM (inactive) | – |
| CN1CCc2c1nc(-c1ccc([N+](=O)[O-])cc1)c1c2N(C)CC1 | – | > 100 µM (inactive) | – | > 100 µM (inactive) | > 100 µM (inactive) | – | > 100 µM (inactive) | > 100 µM (inactive) | > 100 µM (inactive) | – | – | – | > 100 µM (inactive) | 43.2 µM (inactive) | > 100 µM (inactive) | – | 32 µM (inactive) | > 100 µM (inactive) | 0.16 µM (active) | – |
| CCOC(=O)c1c(NC(=S)NCc2ccccc2)sc2c1CCN(C)C2 | 35.4 µM (inactive) | 65.5 µM (inactive) | > 100 µM (inactive) | 39.5 µM (inactive) | 33 µM (inactive) | 64.1 µM (inactive) | – | 82.2 µM (inactive) | – | > 100 µM (inactive) | 59 µM (inactive) | 64.4 µM (inactive) | 53.6 µM (inactive) | 59.6 µM (inactive) | 69.2 µM (inactive) | – | – | – | – | – |
| NC(=O)C(=O)N/N=C1/c2ccccc2CC1C1(O)C(=O)Nc2c(Cl)cc(Cl)cc21 (stereo unspecified) | – | > 100 µM (inactive) | > 100 µM (inactive) | > 100 µM (inactive) | > 100 µM (inactive) | – | > 100 µM (inactive) | > 100 µM (inactive) | > 100 µM (inactive) | – | – | – | 69.7 µM (inactive) | > 100 µM (inactive) | > 100 µM (inactive) | > 100 µM (inactive) | > 100 µM (inactive) | > 100 µM (inactive) | > 100 µM (inactive) | 70.3 µM (inactive) |
| C=C1C(=O)O[C@H]2C/C(C)=C/CC[C@@]3(C)O[C@](C)(CC[C@@H]3I)[C@@H](I)C[C@@H]12 | 4.91 µM (inactive) | 8.69 µM (inactive) | 0.869 µM (active) | 9.02 µM (inactive) | 1.78 µM (inactive) | 5.04 µM (inactive) | 3.81 µM (inactive) | 1.88 µM (inactive) | 7.59 µM (inactive) | 1.44 µM (inactive) | 4.75 µM (inactive) | 8.49 µM (inactive) | 6.78 µM (inactive) | 9.68 µM (inactive) | 6.4 µM (inactive) | – | – | – | – | 1.5 µM (inactive) |
| Cc1cc2cccc(Cl)c2nc1C(=O)c1ccccc1 | – | > 100 µM (inactive) | > 100 µM (inactive) | > 100 µM (inactive) | > 100 µM (inactive) | – | > 100 µM (inactive) | 46.3 µM (inactive) | 50.5 µM (inactive) | – | – | – | > 100 µM (inactive) | – | > 100 µM (inactive) | > 100 µM (inactive) | > 100 µM (inactive) | > 100 µM (inactive) | 18.7 µM (inactive) | > 100 µM (inactive) |
| CSCSCC(CO)NC(=O)/C=C\c1c(C)[nH]c(=O)[nH]c1=O (stereo unspecified) | – | 17.7 µM (inactive) | 35 µM (inactive) | 14.2 µM (inactive) | 23.7 µM (inactive) | – | 15.7 µM (inactive) | 10 µM (inactive) | 8.18 µM (inactive) | 19 µM (inactive) | – | – | 77.1 µM (inactive) | 23.6 µM (inactive) | 32.9 µM (inactive) | 37.8 µM (inactive) | 5.56 µM (inactive) | 9.75 µM (inactive) | 46.1 µM (inactive) | – |
| Oc1ccc(Cl)cc1C1=Nn2c(COc3ccc4c(c3)CCCC4)nnc2SC1 | 10.6 µM (inactive) | 11.4 µM (inactive) | – | 15.4 µM (inactive) | 11.6 µM (inactive) | 18.3 µM (inactive) | 16.8 µM (inactive) | 14.9 µM (inactive) | > 100 µM (inactive) | 14.8 µM (inactive) | 18.3 µM (inactive) | 14.3 µM (inactive) | 25.5 µM (inactive) | 1.49 µM (inactive) | 16.7 µM (inactive) | – | – | – | – | – |
